According to ChEMBL document CHEMBL5465560, “Selectivity Literature for EUbOPEN Chemogenomic Library” (2024):
One block for each molecule: values may come before it.

Columns and labels:
[1] = target: T1, Tyrosine-protein kinase JAK3 (Homo sapiens, UniProt P52333); test: Selectivity interaction (Enyzmatic assay) EUB0000601a JAK3
T1 sequence (P52333 whole entry): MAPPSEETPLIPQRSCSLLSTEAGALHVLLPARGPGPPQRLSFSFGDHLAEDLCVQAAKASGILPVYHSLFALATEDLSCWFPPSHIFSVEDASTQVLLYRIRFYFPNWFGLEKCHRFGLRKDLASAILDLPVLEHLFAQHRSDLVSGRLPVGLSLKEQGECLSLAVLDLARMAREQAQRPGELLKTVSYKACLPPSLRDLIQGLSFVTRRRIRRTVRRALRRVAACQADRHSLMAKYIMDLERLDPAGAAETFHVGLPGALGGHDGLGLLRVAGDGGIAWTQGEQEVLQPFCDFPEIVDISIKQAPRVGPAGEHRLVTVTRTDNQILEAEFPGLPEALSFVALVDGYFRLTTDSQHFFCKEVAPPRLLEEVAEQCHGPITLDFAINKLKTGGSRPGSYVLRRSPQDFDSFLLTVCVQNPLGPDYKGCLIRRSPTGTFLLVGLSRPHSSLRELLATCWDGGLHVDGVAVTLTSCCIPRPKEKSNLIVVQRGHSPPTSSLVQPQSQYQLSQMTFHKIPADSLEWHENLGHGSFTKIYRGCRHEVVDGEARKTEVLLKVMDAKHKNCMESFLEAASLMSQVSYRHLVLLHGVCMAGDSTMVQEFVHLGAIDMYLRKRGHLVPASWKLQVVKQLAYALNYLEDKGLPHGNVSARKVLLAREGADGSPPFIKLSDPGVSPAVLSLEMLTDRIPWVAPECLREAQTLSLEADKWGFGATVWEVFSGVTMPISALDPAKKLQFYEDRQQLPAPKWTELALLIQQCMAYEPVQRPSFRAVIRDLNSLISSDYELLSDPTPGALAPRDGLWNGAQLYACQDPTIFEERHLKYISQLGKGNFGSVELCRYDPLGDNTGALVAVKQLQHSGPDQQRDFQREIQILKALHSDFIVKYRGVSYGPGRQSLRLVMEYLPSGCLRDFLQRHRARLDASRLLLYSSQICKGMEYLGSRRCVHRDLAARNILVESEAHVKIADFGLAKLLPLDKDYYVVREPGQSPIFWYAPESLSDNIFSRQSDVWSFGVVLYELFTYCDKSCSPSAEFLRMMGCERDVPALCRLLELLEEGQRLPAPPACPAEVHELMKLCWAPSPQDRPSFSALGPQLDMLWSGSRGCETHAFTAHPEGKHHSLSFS

[2] = target: T2, Platelet-derived growth factor receptor beta (Homo sapiens, UniProt P09619); test: Selectivity interaction (KinomeScan (DiscoverX)) EUB0001049a PDGFRB; conditions: at 1 µM
T2 sequence (P09619 whole entry): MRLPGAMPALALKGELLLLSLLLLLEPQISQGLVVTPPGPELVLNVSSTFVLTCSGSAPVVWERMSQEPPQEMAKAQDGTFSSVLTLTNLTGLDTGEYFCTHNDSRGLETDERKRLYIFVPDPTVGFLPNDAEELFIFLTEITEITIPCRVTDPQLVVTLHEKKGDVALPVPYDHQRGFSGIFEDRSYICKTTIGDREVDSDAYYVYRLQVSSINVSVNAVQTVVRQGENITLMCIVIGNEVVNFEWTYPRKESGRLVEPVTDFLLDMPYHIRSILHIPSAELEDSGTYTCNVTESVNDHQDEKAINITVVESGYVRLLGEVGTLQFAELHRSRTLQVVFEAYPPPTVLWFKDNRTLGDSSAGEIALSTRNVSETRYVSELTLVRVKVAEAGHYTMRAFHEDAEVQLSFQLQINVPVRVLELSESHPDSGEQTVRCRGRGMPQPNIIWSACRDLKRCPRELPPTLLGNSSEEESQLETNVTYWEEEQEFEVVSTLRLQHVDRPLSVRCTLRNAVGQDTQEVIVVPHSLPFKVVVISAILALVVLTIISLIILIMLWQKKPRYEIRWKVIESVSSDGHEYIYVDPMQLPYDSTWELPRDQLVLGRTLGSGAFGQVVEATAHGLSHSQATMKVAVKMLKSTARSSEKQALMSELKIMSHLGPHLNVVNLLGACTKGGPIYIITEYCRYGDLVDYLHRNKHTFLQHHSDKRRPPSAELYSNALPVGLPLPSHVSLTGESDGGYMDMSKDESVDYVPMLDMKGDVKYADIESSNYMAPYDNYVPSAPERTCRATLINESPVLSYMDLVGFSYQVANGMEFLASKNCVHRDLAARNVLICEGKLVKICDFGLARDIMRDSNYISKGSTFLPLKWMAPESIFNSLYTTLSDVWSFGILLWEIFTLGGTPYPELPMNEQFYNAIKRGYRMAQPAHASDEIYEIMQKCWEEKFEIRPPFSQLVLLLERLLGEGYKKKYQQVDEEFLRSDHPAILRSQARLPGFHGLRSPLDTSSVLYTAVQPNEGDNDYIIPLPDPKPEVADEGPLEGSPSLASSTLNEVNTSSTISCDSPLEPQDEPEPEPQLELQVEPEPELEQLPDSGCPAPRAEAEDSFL

[3] = target: Ephrin type-A receptor 7 (Homo sapiens) (UniProt Q15375); test: Selectivity interaction (Ambit KINOMEscan and KiNATiv profiling in Jurkat cells) EUB0000090b EPHA7; type: cell-based; conditions: at 1 µM
Chain of Ephrin type-A receptor 7 (Homo sapiens) (Q15375 28-998 limits assumed): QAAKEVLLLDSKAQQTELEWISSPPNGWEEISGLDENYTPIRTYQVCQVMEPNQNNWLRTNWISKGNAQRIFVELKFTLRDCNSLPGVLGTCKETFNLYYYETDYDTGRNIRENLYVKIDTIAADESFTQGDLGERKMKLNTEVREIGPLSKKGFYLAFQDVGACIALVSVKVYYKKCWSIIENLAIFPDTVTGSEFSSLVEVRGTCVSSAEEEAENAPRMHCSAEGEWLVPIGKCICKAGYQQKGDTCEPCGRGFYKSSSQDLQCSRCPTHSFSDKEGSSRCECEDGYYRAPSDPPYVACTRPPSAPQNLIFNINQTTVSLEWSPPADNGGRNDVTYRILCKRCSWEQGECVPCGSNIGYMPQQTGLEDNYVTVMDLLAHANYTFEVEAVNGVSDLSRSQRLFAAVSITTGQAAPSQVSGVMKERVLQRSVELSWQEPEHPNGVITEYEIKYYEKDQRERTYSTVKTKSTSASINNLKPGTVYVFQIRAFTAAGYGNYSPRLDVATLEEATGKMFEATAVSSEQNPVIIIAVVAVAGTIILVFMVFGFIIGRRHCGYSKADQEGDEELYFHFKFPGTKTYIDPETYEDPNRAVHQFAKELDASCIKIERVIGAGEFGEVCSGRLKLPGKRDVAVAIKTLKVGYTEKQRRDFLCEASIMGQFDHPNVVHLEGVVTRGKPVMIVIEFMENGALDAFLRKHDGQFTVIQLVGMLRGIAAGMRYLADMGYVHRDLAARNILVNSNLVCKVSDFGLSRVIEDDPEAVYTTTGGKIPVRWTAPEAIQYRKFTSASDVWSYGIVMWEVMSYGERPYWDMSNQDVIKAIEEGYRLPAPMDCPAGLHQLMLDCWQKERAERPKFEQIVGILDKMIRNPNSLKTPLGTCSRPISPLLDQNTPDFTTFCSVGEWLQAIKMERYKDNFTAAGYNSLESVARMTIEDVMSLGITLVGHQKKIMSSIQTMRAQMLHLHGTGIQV

[4] = target: T3, Atypical kinase COQ8B, mitochondrial (Homo sapiens) (UniProt Q96D53); conditions: at 10 µM
T3 sequence (whole entry): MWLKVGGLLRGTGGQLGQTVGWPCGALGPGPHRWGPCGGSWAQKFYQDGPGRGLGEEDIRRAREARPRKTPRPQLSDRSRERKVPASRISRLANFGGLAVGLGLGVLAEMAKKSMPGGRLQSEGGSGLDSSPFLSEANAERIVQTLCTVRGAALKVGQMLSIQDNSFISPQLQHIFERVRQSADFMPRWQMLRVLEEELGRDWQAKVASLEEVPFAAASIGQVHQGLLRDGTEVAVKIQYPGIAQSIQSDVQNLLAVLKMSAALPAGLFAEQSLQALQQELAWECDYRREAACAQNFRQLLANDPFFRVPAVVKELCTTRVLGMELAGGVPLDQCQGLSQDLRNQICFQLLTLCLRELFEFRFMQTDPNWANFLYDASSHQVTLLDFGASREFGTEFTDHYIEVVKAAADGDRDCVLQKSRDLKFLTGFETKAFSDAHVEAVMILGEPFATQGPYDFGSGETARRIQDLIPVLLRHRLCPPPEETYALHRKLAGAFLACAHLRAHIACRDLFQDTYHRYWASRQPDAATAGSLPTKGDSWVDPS

[5] = target: T2, Platelet-derived growth factor receptor beta; test: Selectivity interaction (KinomeScan (DiscoverX)) EUB0000595a PDGFRB; conditions: at 10 µM
[6] = target: Mitogen-activated protein kinase 9 (Homo sapiens, UniProt P45984); conditions: at 10 µM
Chain of Mitogen-activated protein kinase 9 (P45984 whole entry, looked up): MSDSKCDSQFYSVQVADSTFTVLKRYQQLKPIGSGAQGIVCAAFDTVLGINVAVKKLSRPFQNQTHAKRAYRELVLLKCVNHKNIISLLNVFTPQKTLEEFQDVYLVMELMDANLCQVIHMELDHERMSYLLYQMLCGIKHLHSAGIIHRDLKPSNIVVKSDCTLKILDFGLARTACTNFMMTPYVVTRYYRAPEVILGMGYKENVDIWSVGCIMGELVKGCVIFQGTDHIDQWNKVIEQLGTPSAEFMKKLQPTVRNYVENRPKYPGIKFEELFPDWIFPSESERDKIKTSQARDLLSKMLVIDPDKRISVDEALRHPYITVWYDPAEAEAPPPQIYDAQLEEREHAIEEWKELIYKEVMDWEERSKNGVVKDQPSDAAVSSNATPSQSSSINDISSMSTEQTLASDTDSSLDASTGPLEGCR

[7] = target: Ribosomal protein S6 kinase alpha-6 (Homo sapiens, UniProt Q9UK32); test: Selectivity interaction (KinomeScan (DiscoverX)) EUB0000229b RPS6KA6; conditions: at 10 µM
Chain of Ribosomal protein S6 kinase alpha-6 (Q9UK32 whole entry, canonical isoform): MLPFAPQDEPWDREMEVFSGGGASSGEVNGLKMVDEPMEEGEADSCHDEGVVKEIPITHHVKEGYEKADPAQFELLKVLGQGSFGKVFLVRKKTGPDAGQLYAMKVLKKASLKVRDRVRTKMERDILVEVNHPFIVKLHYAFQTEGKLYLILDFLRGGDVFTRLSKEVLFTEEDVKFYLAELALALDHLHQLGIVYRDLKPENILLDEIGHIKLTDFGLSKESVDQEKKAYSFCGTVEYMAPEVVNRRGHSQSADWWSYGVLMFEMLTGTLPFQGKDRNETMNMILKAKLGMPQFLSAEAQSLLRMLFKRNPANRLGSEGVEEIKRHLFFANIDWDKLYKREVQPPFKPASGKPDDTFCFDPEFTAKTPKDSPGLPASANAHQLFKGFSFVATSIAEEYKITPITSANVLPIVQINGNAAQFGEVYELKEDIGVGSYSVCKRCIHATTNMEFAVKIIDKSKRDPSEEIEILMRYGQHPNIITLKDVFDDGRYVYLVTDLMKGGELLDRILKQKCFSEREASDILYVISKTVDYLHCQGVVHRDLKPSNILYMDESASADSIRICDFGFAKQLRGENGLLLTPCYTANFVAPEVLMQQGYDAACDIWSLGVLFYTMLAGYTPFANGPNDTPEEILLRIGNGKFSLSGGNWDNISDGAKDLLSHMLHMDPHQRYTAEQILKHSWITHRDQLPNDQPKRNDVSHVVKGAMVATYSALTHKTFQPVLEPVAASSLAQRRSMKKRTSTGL

[8] = target: Casein kinase I isoform epsilon (Homo sapiens, UniProt P49674); test: Selectivity interaction (KinomeScan (DiscoverX)) EUB0000045b CSNK1E
Chain of Casein kinase I isoform epsilon (P49674 whole entry, looked up, canonical isoform): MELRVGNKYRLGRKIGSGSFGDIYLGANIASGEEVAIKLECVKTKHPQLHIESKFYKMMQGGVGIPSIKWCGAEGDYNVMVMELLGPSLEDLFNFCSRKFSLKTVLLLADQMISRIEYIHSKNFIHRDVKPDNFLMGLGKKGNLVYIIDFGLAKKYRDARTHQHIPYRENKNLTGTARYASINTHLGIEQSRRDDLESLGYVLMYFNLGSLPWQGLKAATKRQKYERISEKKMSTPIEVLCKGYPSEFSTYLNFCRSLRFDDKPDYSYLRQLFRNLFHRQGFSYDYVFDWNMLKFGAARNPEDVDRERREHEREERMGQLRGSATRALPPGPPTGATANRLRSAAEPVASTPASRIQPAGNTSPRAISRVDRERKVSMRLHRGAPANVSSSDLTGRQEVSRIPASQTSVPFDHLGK

[9] = target: Ribosomal protein S6 kinase beta-2 (Homo sapiens) (UniProt Q9UBS0); test: Selectivity interaction (ActivX KiNativ screen (ex vivo kinase selectivity in human PBMCs)) EUB0001619a RPS6KB2; type: cell-based; conditions: PBMC, at 1 µM
Chain of Ribosomal protein S6 kinase beta-2 (Homo sapiens) (Q9UBS0 whole entry): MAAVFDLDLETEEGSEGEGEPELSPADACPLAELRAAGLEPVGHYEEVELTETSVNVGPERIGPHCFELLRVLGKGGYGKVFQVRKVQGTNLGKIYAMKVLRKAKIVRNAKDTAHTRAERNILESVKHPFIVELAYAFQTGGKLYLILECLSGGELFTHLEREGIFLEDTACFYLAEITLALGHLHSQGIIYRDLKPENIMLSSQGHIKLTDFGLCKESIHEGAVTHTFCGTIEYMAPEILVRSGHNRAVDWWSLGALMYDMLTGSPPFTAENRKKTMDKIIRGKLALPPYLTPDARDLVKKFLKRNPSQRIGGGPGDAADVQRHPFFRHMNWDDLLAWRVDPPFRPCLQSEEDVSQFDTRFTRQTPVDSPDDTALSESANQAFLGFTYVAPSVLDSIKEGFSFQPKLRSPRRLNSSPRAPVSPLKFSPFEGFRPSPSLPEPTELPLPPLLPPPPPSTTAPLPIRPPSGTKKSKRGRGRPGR

[10] = target: T4, Tyrosine-protein kinase JAK3 (Homo sapiens) (UniProt P52333); test: Selectivity interaction (KinomeScan (DiscoverX)) EUB0001619a JAK3; conditions: at 1 µM
T4 sequence (whole entry): T1 sequence (P52333 whole entry)

[11] = target: Wee1-like protein kinase (Homo sapiens) (UniProt P30291); test: Selectivity interaction (KinomeScan (DiscoverX)) EUB0001619a WEE1; conditions: at 1 µM
Chain of Wee1-like protein kinase (Homo sapiens) (P30291 whole entry, looked up): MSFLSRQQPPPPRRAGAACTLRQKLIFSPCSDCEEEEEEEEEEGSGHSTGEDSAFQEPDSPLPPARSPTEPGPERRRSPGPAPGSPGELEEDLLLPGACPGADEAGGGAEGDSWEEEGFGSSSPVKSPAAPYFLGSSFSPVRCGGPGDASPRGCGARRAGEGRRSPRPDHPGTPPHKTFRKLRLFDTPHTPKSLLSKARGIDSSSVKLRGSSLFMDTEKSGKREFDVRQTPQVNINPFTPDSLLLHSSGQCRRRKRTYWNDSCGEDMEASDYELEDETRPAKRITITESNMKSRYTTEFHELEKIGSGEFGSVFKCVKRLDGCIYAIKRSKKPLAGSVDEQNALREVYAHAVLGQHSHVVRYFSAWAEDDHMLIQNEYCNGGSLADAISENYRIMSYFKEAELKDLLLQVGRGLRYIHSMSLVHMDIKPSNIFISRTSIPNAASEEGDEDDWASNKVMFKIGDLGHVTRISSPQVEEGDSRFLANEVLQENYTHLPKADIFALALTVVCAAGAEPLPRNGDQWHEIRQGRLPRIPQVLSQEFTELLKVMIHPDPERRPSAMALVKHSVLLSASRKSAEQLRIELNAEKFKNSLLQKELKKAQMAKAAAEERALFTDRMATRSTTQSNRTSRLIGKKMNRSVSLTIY

[12] = target: T5, Homeodomain-interacting protein kinase 4 (Homo sapiens) (UniProt Q8NE63); test: Selectivity interaction (KinomeScan (DiscoverX)) EUB0000607a HIPK4; conditions: at 10 µM
T5 sequence (whole entry): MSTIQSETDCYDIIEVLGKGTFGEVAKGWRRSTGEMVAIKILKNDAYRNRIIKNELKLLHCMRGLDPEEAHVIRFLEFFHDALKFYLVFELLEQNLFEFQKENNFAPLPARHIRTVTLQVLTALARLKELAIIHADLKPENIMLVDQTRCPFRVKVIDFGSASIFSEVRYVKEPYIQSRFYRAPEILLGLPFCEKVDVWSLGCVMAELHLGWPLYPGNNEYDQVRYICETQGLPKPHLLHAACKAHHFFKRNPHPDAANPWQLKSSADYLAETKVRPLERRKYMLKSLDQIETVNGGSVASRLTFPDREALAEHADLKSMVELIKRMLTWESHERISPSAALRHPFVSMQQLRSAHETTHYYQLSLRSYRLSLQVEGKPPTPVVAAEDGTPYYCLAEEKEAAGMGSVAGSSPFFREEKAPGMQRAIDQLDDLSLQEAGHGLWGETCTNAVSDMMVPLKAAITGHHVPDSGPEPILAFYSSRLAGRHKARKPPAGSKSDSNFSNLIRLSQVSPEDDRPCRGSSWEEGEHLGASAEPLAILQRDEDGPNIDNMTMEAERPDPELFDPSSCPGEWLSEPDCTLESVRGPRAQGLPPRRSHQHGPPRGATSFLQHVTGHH

- IC50 [1]: > 10 µM
Structure (SMILES): CCc1cc(Nc2nccc(-c3c(-c4ccc(OC)c(C(=O)Nc5c(F)cccc5F)c4)nc4ccccn34)n2)c(OC)cc1N1CCC(N2CCN(S(C)(=O)=O)CC2)CC1

Structure (SMILES): COc1cc(Nc2nc(C)cc(-c3cnn4nc(OC)ccc34)n2)cc(C(F)(F)F)c1
- % of control [2]: 100%

Structure (SMILES): CN(C)C/C=C/C(=O)Nc1ccc(C(=O)N2CCCC(Nc3ncc(Cl)c(-c4c[nH]c5ccccc45)n3)C2)cc1 (stereo not drawn)
- % of control [3]: 93%

- % of control [4]: 100%
Structure (SMILES): CCN(CC)CCCCNc1ncc2cc(-c3cc(OC)cc(OC)c3)c(NC(=O)NC(C)(C)C)nc2n1

Structure (SMILES): COCC(=O)NC/C=C/c1ccc2ncnc(Nc3ccc(Oc4ccc(C)nc4)c(C)c3)c2c1 [CP-724714]
- % of control [5]: 46%
- % of control [6]: 53%

Structure (SMILES): COc1cc(N(C)c2ccnc3ccc(C(F)(F)F)cc23)cc(OC)c1OC
- % binding [7]: 81%

Structure (SMILES): C=CC(=O)Nc1cc(-n2c(=O)ccc3cnc4ccc(-c5ccc(NS(C)(=O)=O)cc5)cc4c32)ccc1C
- % of control ([8]; at 1 µM): 100%
- % of control ([8]; at 10 µM): 100%

Structure (SMILES): N#Cc1cccc(-c2c[nH]c3ncnc(N4CCOCC4)c23)c1
- % of inhibition [9]: -10%
- % of control [10]: 2.7%
- % of control [11]: 100%

Structure (SMILES): CNC(=O)Nc1ccc(-c2nc(N3CC4CCC(C3)O4)c3cnn(C4CCC5(CC4)OCCO5)c3n2)cc1
- % of control [12]: 100%
